From publication PMC10113214 (Scientific Reports, 2023)
“Also recorded” adds a separate entry of the source.

Tests used:
[1] = system: Human neutrophil elastase (EC No. 3.4.21.37, Sigma-Aldrich); experiment: Human neutrophil elastase (final concentration 150 nM) in 0.1 M Tris HCl, 500 mM NaCl, 0.05% Triton X-100, 20 mM CaCl2 pH 7.5 buffer mixture; conditions: 37 °C, up to 30 min.
[2] = Circular dichroism, conformation and thermal stability of β-sheet; format: physicochemical
Experimental: The molar ellipticity of peptides were registered on a Jasco J-815 spectrometer (JASCO, Easton, MD, USA). Solutions of peptide hybrids were prepared in water solution (10 mg/ml), incubated at 37 °C for 4 h and then diluted to a final concentration of 0.20 mg/ml. CD spectra measurements were performed at 25 °C, 30 °C, 35 °C, 40 °C, 45 °C, 50 °C, 55 °C and 60 °C, at 190–260 nm wavelength and at a scan speed of […]. The background of the solvent was subtracted. The results are presented as the relationship of mean residue molar ellipticity (MRME) [deg × cm^2 × dmol^−1] to wavelength [nm]. Measurements were performed in triplicate. In order to determine the peptides’ denaturation temperatures, the molar ellipticity rotatory angle at a fixed wavelength of 196 nm, [θ]196, was measured as a function of temperature (max 100 °C). CD temperature measurements were carried out up to a temperature of 100 °C. Above this temperature, the cure was extrapolated with GraphPad Prism 8 software using the 4PL curve fit function. The denaturation temperature was determined as the temperature at which the change in ellipticity (θ) was half complete.

[3] = biological target: T1, Human neutrophil elastase (Homo sapiens, UniProt P08246); experiment: Elastase enzymatic cleavage; format: in vitro ADME; conditions: human neutrophil elastase 150 nM, peptide 1 mM, 30 min, 37 °C
T1 construct: purchased Sigma-Aldrich
T1 sequence (P08246 30-267): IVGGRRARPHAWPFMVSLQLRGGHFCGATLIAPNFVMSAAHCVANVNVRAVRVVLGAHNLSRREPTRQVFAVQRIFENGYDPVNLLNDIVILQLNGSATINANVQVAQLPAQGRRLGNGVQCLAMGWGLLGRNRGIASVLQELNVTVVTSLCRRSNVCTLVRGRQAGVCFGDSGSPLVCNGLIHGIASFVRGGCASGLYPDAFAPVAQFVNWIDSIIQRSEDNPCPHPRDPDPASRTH
Experimental: Human neutrophil elastase (EC No. 3.4.21.37, Sigma-Aldrich) was used to study peptide susceptibility to that enzyme. Peptides were dissolved in 0.1 M Tris HCl, 500 mM NaCl, 0.05% Triton X-100, 20 mM CaCl2 pH 7.5 buffer mixture. Peptides (final concentration 1 mM) were mixed with the enzyme (final concentration 150 nM) and incubated for 30 min. in a thermoshaker (37 °C, 300 rpm). The reaction was stopped by a 10% aqueous solution of TFA. The results were analyzed using HPLC and MALDI or LC–MS. Details of this experiment are described in the Supplementary Data.

[4] = Transmission electron microscopy of nanofibres; format: physicochemical; conditions: 1% gel in PBS diluted to 0.001%, uranyl acetate stain
Experimental: 1% gel solutions were prepared and incubated in PBS. The samples were then diluted to 0.001% concentration. A drop of solution was applied to a microcellulose membrane and stained with a 1.5% solution of uranyl acetate. The images were registered on a Tecnai Spirit BioTwin FEI Transmission Electron Microscope operating at 120 kV.

Rheology of hydrogels = format: physicochemical; conditions: 1% hydrogel, 37 °C
Experimental: Rheological parameters of the hydrogels were identified using an MCR 302 rheometer (Anton Paar GmbH, Graz, Austria). The rheometer was equipped with a CP50-1 stainless steel cone-and-plate system of 50 mm diameter, 1° cone angle and 50 µm cone truncation and a Peltier controlled temperature unit. An aliquot of 900 µL of 1% hydrogel was applied to a plate cone. The linear viscoelastic (LVE) region was determined through an amplitude sweeps: shear strain (0.01–100% at 6 rad s^−1) and shear stress (0.001–10 Pa at 6.28 rad s^−1). Frequency sweep were measured from 0.01 to 100 rad s^−1 at 2.5% strain. The frequency dependence of the storage modulus (G’) and loss modulus (G”) of the hydrogels were measured at 37 °C. All experiments were carried out in triplicate and reported as the mean of three repeats.

[5] = system: full-thickness excisional dorsal skin wounds; experiment: Skin wound healing model in mice; format: in vivo, BALB/c mice; conditions: BALB/c female mice, 6.0 mm punch dorsal wounds, 10 µL 1% hydrogel topically daily for five days; n = 6, SD
Experimental: Eight to ten-week-old BALB/c female mice were used for these experiments. All experimental procedures were approved by the Local Ethics Committee for Animal Experimentation in Bydgoszcz, Poland (Approval No. 49/2016). The study was conducted in compliance with the ARRIVE gudidelines. All animal handling methods were carried out in accordance with European Union Commission Recommendation of 18 June 2007 on guidelines for the accommodation and care of animals used for experimental and other scientific purposes. Before experiments, mice were randomized and divided into groups comprising six individuals. The mice were anaesthetized with inhaled 2–5% isoflurane. The skin on the dorsum was shaved and disinfected. After the skin was folded and raised cranially and caudally along the spine, the mouse was placed in a lateral position, and the folded skin was pierced with a 6.0 mm biopsy punch to make two through-and-through symmetrical wounds. Next, 10 µL of peptide hybrid hydrogel was applied onto each wound. Every gel was prepared in sterile conditions in biological safety cabinet, using sterile water to final concentration of 10 mg/ml (1%). Then the gels were incubated for 24 h allowing it to assemble. Control mice were treated with RADA16-I. The wounds were covered with a transparent Tegaderm TM dressing to protect the wound from outer environment of the cage and other animals. It was fastened with an adhesive plaster wrapped around the animal’s torso. The peptide hybrids were applied daily to the wounds for five consecutive days. The dressings were replaced daily in the first five days of the experiment and every second day until the end of the second week of the experiment. To measure the wound areas the wounds were photographed with a ruler placed next to the injury site. Wound areas were calculated using the computer-assisted image analysis program ImageJ[51].

dorsal skin wounds = experiment: Histological evaluation of skin samples; format: in vivo, BALB/c mice; conditions: Masson’s trichrome
Excerpt: Mice were sacrificed on day 18 post-injury. In addition, for investigation of early wound healing, 1 mouse from each group was sacrificed on day 4 post-injury. The skin samples were collected and stored in formalin. Skin samples embedded in paraffin were cut into 5 µm sections following staining with Masson’s trichrome (green: collagen, dermis; grey or dark grey: cell nuclei, epidermis, sebaceous glands; dark red: keratinized epidermis, muscle, hair; light red: red blood cells). Image acquisitions were made with a Leica DM IL microscope. To evaluate the collagen density in dorsal skin wounds, we employed the method of colour deconvolution described by Ruifrok and Johnston[52]. Using the ImageJ software with a colour deconvolution plug-in[53], we analyzed between 7 and 9 images of dorsal skin samples stained with Masson’ trichrome, representing 2–3 mice per group. The results are presented as mean relative collagen density.

Compound: Ac-(Arg-Ala-Asp-Ala)4-Gly-Gly-Gly-Ala-Ala-Pro-Val-Gly-Gly-Gly-Arg-Asp-Lys-Val-Tyr-Arg-NH2
- cleaved bond [1]: Val23-Gly24, major; also recorded: Gly24-Gly25, major

Compound: Ac-(Arg-Ala-Asp-Ala)4-Gly-Gly-Gly-Ala-Ala-Pro-Val-Gly-Gly-Gly-His-Lys-NH2
- cleaved bond [1]: Val23-Gly24; also recorded: Gly25-Gly26, major

Compound: CC(=O)N[C@@H](CCCNC(=N)N)C(=O)N[C@@H](C)C(=O)N[C@@H](CC(=O)O)C(=O)N[C@@H](C)C(=O)N[C@@H](CCCNC(=N)N)C(=O)N[C@@H](C)C(=O)N[C@@H](CC(=O)O)C(=O)N[C@@H](C)C(=O)N[C@@H](CCCNC(=N)N)C(=O)N[C@@H](C)C(=O)N[C@@H](CC(=O)O)C(=O)N[C@@H](C)C(=O)N[C@@H](CCCNC(=N)N)C(=O)N[C@@H](C)C(=O)N[C@@H](CC(=O)O)C(=O)N[C@@H](C)C(N)=O [RADA16-I, Ac-(Arg-Ala-Asp-Ala)4-NH2]
- heat stability of β-sheet structure (rank) ([2]; CD scans at different temperatures): lowest stability of β-sheet structure

Compound: CC(=O)N[C@@H](CCCNC(=N)N)C(=O)N[C@@H](C)C(=O)N[C@@H](CC(=O)O)C(=O)N[C@@H](C)C(=O)N[C@@H](CCCNC(=N)N)C(=O)N[C@@H](C)C(=O)N[C@@H](CC(=O)O)C(=O)N[C@@H](C)C(=O)N[C@@H](CCCNC(=N)N)C(=O)N[C@@H](C)C(=O)N[C@@H](CC(=O)O)C(=O)N[C@@H](C)C(=O)N[C@@H](CCCNC(=N)N)C(=O)N[C@@H](C)C(=O)N[C@@H](CC(=O)O)C(=O)N[C@@H](C)C(=O)NCC(=O)NCC(=O)NCC(=O)N[C@@H](C)C(=O)N[C@@H](C)C(=O)N1CCC[C@H]1C(=O)N[C@H](C(=O)NCC(=O)NCC(=O)NCC(=O)N[C@@H](CCCNC(=N)N)C(=O)N[C@@H](CC(=O)O)C(=O)N[C@@H](CCCCN)C(=O)N[C@H](C(=O)N[C@@H](Cc1ccc(O)cc1)C(=O)N[C@@H](CCCNC(=N)N)C(N)=O)C(C)C)C(C)C [RADA-IM, Ac-(Arg-Ala-Asp-Ala)4-Gly-Gly-Gly-Ala-Ala-Pro-Val-Gly-Gly-Gly-Arg-Asp-Lys-Val-Tyr-Arg-NH2]
- identified fragments of peptides after elastase digestion (most abundant MS signals) ([3]; 300 rpm, 0.1 M Tris HCl, 500 mM NaCl, 0.05% Triton X-100, 20 mM CaCl2 pH 7.5, HPLC and MALDI or LC-MS, fragment Ac-(RADA)4-GGG-AAPV-COOH): Ac-(RADA)4-GGG-AAPV-COOH
- main / predominant fragments of elastase digestion ([3]; pH 7.5 buffer, HPLC, mass spectrometry): Gly^24Gly^25Gly^26Arg^27Asp^28Lys^29Val^30Tyr^31Arg^32
- temperature of first disruption of the β-sheets ([2]; CD, [θ]196 nm as function of temperature 4–100 °C, gel 10 mg/ml in water, 37 °C 4 h, diluted to 0.20 mg/ml, decrease of molar ellipticity): ~52 °C
- transition temperature (half β-conformation, half disordered) ([2]; CD, [θ]196 nm vs temperature, 0.20 mg/ml in water, above 100 °C curve extrapolated, 4PL fit): 95 °C
- fibre thickness (TEM) [4]: 6–8 nm
- magnitude of G’ compared with other gels (Rheology of hydrogels; cone-plate, frequency sweep, mean of three repeats): around one-tenth of these values
- shear strain above which the gel behaves like a liquid (G” > G’) (Rheology of hydrogels; strain sweep, ω = 6.28 rad/s): above 30%
- wound closure on day 7 [5]: 16.2 ± 21.1%
- collagen density on day 18 post-injury (dorsal skin wounds; colour deconvolution, 7–9 images, 2–3 mice per group): statistically significant lower collagen density than the RADA16-I sample
- hair follicles in wound area on day 18 (dorsal skin wounds; day 18 post-injury): many hair follicles could be observed
- epithelium (membrane-like structure) thickness on day 4 post-injury (dorsal skin wounds; versus RADA16-I group, Mann–Whitney U test): significantly thicker epithelium

Compound: Ac-(Arg-Ala-Asp-Ala)4-Gly-Gly-Gly-Ala-Ala-Pro-Val-Gly-Gly-Gly-Lys-Gly-His-Lys-NH2
- cleaved bond [1]: Val23-Gly24; also recorded: Ala21-Pro22, major; also recorded: Ala20-Ala21, major
